Test system: Staphylococcus epidermidis
Assay: Minimum inhibitory concentration, BKC / polymer synergy, 96-well microtiter
Format: cell-based
Conditions: second test (lower line of each polymer); 24 h, 37° C.; 100% active
Experimental: Take well-defined and typical colonies of Staphylococcus epidermidis from a recent plate of tryptic soy agar (TSA), dissolve and vortex them in a tube containing 30 mL of tryptic soy broth (TSB) and incubate for 17+/−1h at 37° C.+/−1° C. Quantify by plate count in TSA (incubated for 48h+/−1h at 37° C.+/−1° C.). Use the broth culture suspension within seven (7) days after the incubation period. Vortex and take 0.2 mL from the broth culture and dilute in appropriate volume of 0.85% NaCl to normalize the strain at 3-5×10^5 CFU/mL Using a micropipette, add 100 μL of TSB in a 96-well microtiter plate format. […] (both samples are the same) Using a micropipette take 100 μL of the sample from column 2 and dilute it in column 3 performing a 1:1 dilution with the diluent already present in the wells, proceeding with a serial dilution up to column 9. Discard the remaining 100 μL. […] Dispense 100 μL of inoculum using a micropipette into each well in columns 2 to 10. Columns 1 and 11 are the sample sterility test and negative test control columns, respectively. No growth should be observed in these columns. Column 10 is the positive test control and growth should be observed. […] Incubate the microwell plate for 24h+/−1h at 37° C.+/−1° C. The minimum inhibitory concentration (MIC) is determined by visually checking the wells for growth. […]

C12-16 alkyldimethylbenzylammonium chloride [BKC]
BKC MIC in ppm alone: 0.3-0.8 ppm
